According to patent US20100256395A1, “EFFICIENT METHOD FOR PRODUCING MUGINEIC ACIDS” (SUNTORY HOLDINGS LIMITED, priority 2006, published 2010):

Test system: mugineic acid-Fe complex transporter HvYS1
Assay: Iron uptake activity: electrophysiological measurement of intracellular uptake of mugineic acid-Fe complex in oocytes expressing the transporter
Type: cell-based, barley
Conditions: substrate-Fe complex final concentration 50 μM; African clawed frog oocytes expressing HvYS1; natural mugineic acid set to 100%; FIG. 1
Source text: Concerning the S isomer (natural form) and R isomer of 2′-OH obtained in Example 12, 2′-deoxy isomer obtained in Example 9, and mugineic acid purified from barley by the method described in “Takagi, S. et al., Journal of Plant Nutrition, 1984, 7th volume, p 469-477”, it was verified that the intracellular uptake of iron complex thereof actually takes place via the mugineic acid-Fe complex transporter. According to the method described in “Murata, Y. et al., Plant Journal (Plant J), 2006, 46th volume, p. 563-572.”, the gene HvYS1 gene which codes the mugineic acid-Fe complex transporter of barley (Plant J. 2006, vol. 46, 563-572) was introduced into the oocytes of the African clawed frog. […] The intracellular uptake of mugineic acid-Fe complex was measured using Oocyte clamp OC-725C (Warner Instrument) by the detection of electrochemical signal. More specifically, the oocyte which expressed the mugineic acid-Fe complex transporter HvYS1 was set to the chamber filled with ND-96 solution, 10 μl of a 5 mM substrate-Fe complex solution (final concentration 50 μM) was sprinkled on the oocyte and the electrical physiological activity was measured. The oocyte was plugged with 2 microelectrodes filled with 3M KCl, and with the mode in which the electric potential of the experimental tank was fixed at 0 V, the current value changing at a fixed electrical potential, […], was measured. […]

SMILES: O=C(O)[C@@H](NCC[C@H](O)C(=O)O)[C@@H](O)CN1CC[C@H]1C(=O)O [natural mugineic acid, mugineic acid]
- size of the current value (electrical physiological activity), relative value to natural mugineic acid: 100%
